These results are taken from ChEMBL document CHEMBL5291721, “A preclinical secondary pharmacology resource illuminates target-adverse drug reaction associations of marketed drugs” (Nat Commun, 2023).

In test [1] the target is T1, Cannabinoid receptor 1 (Homo sapiens, UniProt P21554). Format: functional, cell-based.
Test [2] concerns the target Sodium-dependent dopamine transporter (Homo sapiens, UniProt Q01959).
Test [3] concerns the target T2, Muscarinic acetylcholine receptor M2 (Homo sapiens, UniProt P08172).
T2 sequence (P08172 whole entry): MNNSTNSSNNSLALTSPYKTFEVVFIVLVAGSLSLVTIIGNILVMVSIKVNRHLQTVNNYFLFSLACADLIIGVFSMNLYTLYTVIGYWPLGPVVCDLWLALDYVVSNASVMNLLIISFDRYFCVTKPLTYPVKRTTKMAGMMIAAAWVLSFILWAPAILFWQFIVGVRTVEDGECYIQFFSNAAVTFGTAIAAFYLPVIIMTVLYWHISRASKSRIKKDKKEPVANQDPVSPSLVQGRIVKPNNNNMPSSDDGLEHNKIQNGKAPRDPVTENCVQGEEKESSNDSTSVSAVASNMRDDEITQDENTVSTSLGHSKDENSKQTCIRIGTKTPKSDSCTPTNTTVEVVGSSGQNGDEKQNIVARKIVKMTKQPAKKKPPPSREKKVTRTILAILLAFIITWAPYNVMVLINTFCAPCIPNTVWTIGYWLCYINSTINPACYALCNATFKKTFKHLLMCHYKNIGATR
The test is classed as functional, cell-based.

Test [4] concerns the target T3, Adenosine receptor A3 (Homo sapiens, UniProt P0DMS8).
T3 sequence (P0DMS8 whole entry): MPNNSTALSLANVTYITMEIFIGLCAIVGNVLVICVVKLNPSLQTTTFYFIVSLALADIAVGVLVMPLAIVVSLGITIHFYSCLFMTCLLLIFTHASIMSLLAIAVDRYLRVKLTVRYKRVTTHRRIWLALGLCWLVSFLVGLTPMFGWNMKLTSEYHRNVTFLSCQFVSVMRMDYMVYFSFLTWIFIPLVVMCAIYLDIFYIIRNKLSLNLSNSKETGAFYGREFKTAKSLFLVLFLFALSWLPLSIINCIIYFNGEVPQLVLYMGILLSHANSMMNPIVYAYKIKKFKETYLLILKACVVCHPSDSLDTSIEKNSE

For test [5], the target named is T1, Cannabinoid receptor 1. The test is classed as functional, cell-based. This is another data set of the same source.
For test [6], the target named is D(1A) dopamine receptor (Homo sapiens, UniProt P21728). Format: functional, cell-based.
Chain of D(1A) dopamine receptor (P21728 whole entry): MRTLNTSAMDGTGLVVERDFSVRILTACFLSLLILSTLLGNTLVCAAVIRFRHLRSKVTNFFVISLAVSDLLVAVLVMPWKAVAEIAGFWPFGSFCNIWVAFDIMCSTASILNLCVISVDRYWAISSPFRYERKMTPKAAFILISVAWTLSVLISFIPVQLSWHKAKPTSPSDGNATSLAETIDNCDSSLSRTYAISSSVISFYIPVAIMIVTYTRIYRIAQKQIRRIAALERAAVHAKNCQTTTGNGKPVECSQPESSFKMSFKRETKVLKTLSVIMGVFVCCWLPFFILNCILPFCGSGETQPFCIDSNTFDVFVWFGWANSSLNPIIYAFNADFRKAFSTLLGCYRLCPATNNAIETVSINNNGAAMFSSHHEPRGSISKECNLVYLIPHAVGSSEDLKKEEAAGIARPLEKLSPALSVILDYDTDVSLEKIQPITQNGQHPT
The target of test [7] is T4, 5-hydroxytryptamine receptor 2B (Homo sapiens, UniProt P41595). Format: functional, cell-based.
T4 sequence (P41595 whole entry): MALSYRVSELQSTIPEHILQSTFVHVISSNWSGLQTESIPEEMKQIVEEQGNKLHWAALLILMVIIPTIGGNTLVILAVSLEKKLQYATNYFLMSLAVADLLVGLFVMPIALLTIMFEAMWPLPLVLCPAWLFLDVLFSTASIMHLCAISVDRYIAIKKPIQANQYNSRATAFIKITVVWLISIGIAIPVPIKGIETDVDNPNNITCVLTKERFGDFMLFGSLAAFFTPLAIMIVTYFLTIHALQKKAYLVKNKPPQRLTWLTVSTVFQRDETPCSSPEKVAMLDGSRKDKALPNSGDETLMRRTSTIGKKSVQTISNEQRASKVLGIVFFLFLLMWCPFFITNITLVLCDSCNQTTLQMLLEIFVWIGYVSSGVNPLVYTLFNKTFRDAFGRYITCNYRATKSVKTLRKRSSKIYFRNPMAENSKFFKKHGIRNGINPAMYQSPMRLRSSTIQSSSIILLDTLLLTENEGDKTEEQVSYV
Test [8] has as its target T5, Amine oxidase [flavin-containing] A (Homo sapiens, UniProt P21397).
T5 sequence (P21397 whole entry): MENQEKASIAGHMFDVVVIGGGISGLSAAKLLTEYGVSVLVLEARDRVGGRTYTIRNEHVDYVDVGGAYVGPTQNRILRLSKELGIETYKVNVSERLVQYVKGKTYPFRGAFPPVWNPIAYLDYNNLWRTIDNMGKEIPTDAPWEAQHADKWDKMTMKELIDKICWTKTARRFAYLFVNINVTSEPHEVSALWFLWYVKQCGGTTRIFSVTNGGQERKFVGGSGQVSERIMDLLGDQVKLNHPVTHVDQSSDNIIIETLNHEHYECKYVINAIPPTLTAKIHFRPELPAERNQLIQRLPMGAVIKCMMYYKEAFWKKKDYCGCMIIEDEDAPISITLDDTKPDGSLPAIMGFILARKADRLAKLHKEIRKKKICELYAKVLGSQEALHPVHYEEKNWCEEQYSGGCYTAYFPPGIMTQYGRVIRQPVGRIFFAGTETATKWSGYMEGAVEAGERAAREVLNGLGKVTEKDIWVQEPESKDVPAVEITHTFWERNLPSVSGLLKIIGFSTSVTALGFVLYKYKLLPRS
Format: functional.

Test [9] has as its target T4, 5-hydroxytryptamine receptor 2B. The test is classed as functional, cell-based. The source holds these as a separate data set.
The target of test [10] is T6, B2 bradykinin receptor (Homo sapiens, UniProt P30411).
T6 sequence (P30411 whole entry): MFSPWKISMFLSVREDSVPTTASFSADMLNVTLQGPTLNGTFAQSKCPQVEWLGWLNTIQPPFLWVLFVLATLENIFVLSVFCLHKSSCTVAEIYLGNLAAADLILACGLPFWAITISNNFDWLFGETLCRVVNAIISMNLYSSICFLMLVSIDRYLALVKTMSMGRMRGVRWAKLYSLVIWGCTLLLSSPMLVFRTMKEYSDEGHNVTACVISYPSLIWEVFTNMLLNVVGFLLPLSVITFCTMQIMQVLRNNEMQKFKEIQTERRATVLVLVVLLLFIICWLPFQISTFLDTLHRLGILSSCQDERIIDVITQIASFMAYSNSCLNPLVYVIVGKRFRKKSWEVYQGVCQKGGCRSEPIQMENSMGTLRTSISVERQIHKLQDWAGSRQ

The target of test [11] is T7, Glucocorticoid receptor (Homo sapiens, UniProt P04150).
T7 sequence (P04150 whole entry): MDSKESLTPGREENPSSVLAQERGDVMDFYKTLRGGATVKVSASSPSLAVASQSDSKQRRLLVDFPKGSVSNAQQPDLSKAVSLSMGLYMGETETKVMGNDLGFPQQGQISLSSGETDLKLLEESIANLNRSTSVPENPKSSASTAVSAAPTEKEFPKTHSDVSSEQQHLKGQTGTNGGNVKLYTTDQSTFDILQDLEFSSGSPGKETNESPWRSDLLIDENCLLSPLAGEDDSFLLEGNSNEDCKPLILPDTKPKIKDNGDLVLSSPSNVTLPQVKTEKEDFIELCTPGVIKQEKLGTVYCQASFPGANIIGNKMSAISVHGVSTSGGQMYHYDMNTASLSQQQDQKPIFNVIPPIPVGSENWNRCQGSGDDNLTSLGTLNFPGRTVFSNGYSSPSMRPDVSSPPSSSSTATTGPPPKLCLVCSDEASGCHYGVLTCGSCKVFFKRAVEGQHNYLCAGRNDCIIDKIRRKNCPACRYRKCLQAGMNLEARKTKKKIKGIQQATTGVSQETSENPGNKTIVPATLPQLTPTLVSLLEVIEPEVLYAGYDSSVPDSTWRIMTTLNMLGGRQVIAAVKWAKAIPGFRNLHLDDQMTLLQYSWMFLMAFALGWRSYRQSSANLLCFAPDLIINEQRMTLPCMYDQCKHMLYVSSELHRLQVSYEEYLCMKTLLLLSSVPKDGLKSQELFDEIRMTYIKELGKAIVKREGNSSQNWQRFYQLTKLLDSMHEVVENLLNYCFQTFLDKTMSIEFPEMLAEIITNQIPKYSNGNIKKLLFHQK
Also: assay procedure not described here.

T1 sequence (P21554 whole entry): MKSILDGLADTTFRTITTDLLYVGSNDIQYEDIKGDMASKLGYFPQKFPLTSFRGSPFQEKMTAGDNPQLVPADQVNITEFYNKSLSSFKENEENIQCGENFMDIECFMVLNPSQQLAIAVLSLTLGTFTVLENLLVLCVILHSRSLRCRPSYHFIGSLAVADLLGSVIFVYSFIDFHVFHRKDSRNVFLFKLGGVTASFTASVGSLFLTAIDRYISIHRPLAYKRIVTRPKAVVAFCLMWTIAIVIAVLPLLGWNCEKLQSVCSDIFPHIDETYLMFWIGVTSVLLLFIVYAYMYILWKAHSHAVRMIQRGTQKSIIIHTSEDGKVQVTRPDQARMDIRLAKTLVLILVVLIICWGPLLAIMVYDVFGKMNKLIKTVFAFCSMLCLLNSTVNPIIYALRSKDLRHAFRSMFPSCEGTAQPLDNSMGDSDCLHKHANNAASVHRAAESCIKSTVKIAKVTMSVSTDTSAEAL
Chain of Sodium-dependent dopamine transporter (Q01959 whole entry): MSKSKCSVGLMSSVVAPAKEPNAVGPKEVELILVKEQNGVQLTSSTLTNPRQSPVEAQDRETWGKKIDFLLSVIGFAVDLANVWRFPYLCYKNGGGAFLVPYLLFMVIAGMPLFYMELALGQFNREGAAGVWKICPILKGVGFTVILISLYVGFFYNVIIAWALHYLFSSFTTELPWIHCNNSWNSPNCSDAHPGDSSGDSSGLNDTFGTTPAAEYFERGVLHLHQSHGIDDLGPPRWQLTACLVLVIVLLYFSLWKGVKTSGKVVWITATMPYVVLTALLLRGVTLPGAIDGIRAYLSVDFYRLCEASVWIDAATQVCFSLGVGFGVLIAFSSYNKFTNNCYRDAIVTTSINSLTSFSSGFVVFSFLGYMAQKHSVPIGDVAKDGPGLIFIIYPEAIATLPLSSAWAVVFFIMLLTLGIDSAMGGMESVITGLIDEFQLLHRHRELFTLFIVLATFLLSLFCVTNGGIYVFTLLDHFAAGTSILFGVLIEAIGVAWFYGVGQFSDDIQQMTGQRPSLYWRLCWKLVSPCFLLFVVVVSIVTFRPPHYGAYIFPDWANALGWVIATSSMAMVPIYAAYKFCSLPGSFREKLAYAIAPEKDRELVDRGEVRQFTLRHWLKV

In the case of `CCCNC(C)C(=O)Nc1ccccc1C` (stereo not drawn) [PRILOCAINE], the AC50 in test [1] was more than 30 µM; in test [2], more than 30 µM; in test [3], more than 10 µM; in [4], more than 30 µM; in [5] it was more than 30 µM; in test [6], more than 30 µM. The half-maximal activity concentration (AC50) in test [7], in test [8], in [9], in test [10] and in test [11] was more than 30 µM throughout.
As to `CCN(CC)CC(=O)Oc1ccc(NC(C)=O)cc1` [PROPACETAMOL], the half-maximal activity concentration (AC50) in test [1], in test [2], in test [3], in test [4], in test [5] and in [6] was more than 30 µM each time. In addition, the AC50 in [7], in test [8], in test [9], in [10] and in test [11] was more than 30 µM throughout.
`CCCOC(C(=O)OC1CCN(C)CC1)(c1ccccc1)c1ccccc1` [PROPIVERINE]: the AC50 in [1] was more than 30 µM; in test [2], 16 µM; in [3], more than 30 µM; in test [4], more than 30 µM; in test [5], more than 30 µM; in test [6], more than 30 µM. For the same molecule, the AC50 in test [7] was more than 30 µM; in test [8], more than 30 µM; in [9], 16 µM; in test [10] it was more than 30 µM; in [11] it was more than 30 µM.
Regarding `[H]/N=C(/N)N[C@H]1[C@H](O)[C@@H](O)[C@H](O[C@@H]2O[C@@H](C)[C@](O)(C=O)[C@H]2O[C@@H]2O[C@@H](CO)[C@H](O)[C@@H](O)[C@@H]2NC)[C@@H](N/C(N)=N\[H])[C@@H]1O` [STREPTOMYCIN], the half-maximal activity concentration (AC50) in test [1], in test [2], in [3], in test [4], in test [5] and in test [6] was more than 30 µM throughout. The AC50 in test [7], in test [8], in test [9], in test [10] and in test [11] was more than 30 µM each time.
For `CN1c2ccccc2C(NCCCCCCC(=O)O)c2ccc(Cl)cc2S1(=O)=O` (stereo not drawn) [TIANEPTINE], the AC50 in test [1], in test [2], in [3], in test [4], in test [5] and in test [6] was more than 30 µM each time. Besides, the AC50 in [7], in [8], in test [9], in test [10] and in [11] was more than 30 µM in each case.
Take `CC(C)(C)NC[C@H](O)COc1nsnc1N1CCOCC1` [TIMOLOL]: the AC50 in [1], in test [2], in [3], in test [4], in test [5] and in [6] was more than 30 µM each time. The AC50 in [7], in test [8], in test [9], in [10] and in [11] was more than 30 µM throughout.
For `COc1cc2c(Nc3ccc(Br)cc3F)ncnc2cc1OCC1CCN(C)CC1` [VANDETANIB], the AC50 was more than 30 µM in [1]; 14 µM in [2]; more than 30 µM in [3]; 23 µM in test [4]; more than 30 µM in test [5]; more than 30 µM in test [6]. Moreover, the AC50 in test [7] was more than 30 µM; in [8], more than 30 µM; in [9], 14 µM; in test [10], more than 10 µM; in test [11], more than 30 µM.
For the molecule `C=CC(N)CCC(=O)O` (stereo not drawn) [VIGABATRIN], the AC50 in [1] was more than 30 µM; in test [2] it was 19.5 µM; in [3] it was more than 10 µM; in [4] it was more than 10 µM; in test [5], more than 30 µM; in [6], more than 10 µM. In addition, the AC50 in test [7], in [8], in test [9], in [10] and in test [11] was more than 10 µM each time.
